Test results as given in patent publication US10769242B2, “System and method for data mining very large drugs and clinical effects databases” (Cincinnati Children's Hospital Medical Center, priority 2015, dated 2020).

Assay: AERSMine mining of FAERS reports: lithium toxicity and inversely correlated drugs
Parameters: species or system patients
Settings: for safety signal IC for lithium-specific neurological adverse events: human
Description: To establish lithium-adverse event correlation, AERSMine uses multiple quantitative elements such as AE incidence rate, multiple hypothesis testing, relative risk, and safety signals. For this example, the following analytical parameters were used: total reports per adverse event were set to ≥2,000; adverse event and lithium intake co-reported in at least 10 reports; RR set to ≥2; FDR-corrected p-value of <0.001 (Benjamini and Hochberg); and safety signal (i.e., IC) set to >0.
Additionally, by excluding patients with comorbidities (e.g., diabetes) reported to worsen mental health and exacerbate neurological symptoms from the analysis, allows AERSMine to accurately represent potentially lithium-specific adverse events (e.g., aggression, irritability, anger, suicidal tendencies, tremors, and other neurological symptoms, movement disorders, personality changes, etc.). The inventors then sought to determine if AERSMine could identify drugs that are inversely correlated with these adverse events, which may indicate a potential reduction in risk and represent a novel combinatorial strategy to mitigate lithium-related toxicity. […] (no concomitant use with lithium, IC<0, i.e., number of observed events<expected, FDR-corrected p<0.001). To understand how the risks differ across these therapeutic agents, AERSMine additionally allows comparative analyses across multiple drugs or therapeutic classes, which show the differential effects across the inversely correlated drugs.

| SMILES | safety signal IC for lithium-specific neurological adverse events | number of adverse events significantly correlated with lithium use (of 4,180 adverse events in 22,575 patient reports, RR>=2, FDR p<0.001, IC>0) |
| --- | --- | --- |
| CCCCC(=O)N(Cc1ccc(-c2ccccc2-c2nnn[nH]2)cc1)[C@H](C(=O)O)C(C)C [valsartan] | < 0 | – |
| CCCCc1nc(Cl)c(CO)n1Cc1ccc(-c2ccccc2-c2nn[nH]n2)cc1 [losartan] | < 0 | – |
| [Li] [lithium] | – | 327 adverse events |
